Test results as given in patent US20250243160A1, “INDOLE DERIVATIVES FOR TARGETING AUTOPHAGY” (Automera PTE. LTD, priority 2024, published 2025).

Legend:
p62 oligomers = target: T1, p62 oligomers (Homo sapiens, UniProt Q13501); assay: p62 oligomerization assay by Western blot in HeLa cells; type: cell-based; conditions: 24 hours treatment, relative to vehicle control (DMSO)
T1 construct: endogenous in cells; host or cells: HeLa
Method: (§1) HeLa cells were seeded in 6-well plates (700,000 cells) and allowed to adhere overnight. Media was replaced one hour before administering either vehicle (DMSO) or test compounds. After 24 hours of treatment, the media was discarded, and cells were rinsed once with ice-cold 1×PBS before detached from plates with ice-cold RIPA Lysis and Extraction Buffer (Thermo Fisher Scientific) which was supplemented with protease and phosphatase inhibitors. The resulting cell suspensions were transferred to pre-chilled microcentrifuge tubes, incubated on ice for 20 min with intermittent mixing and then centrifuged at 12,000 rpm for 20 min at 4° C. The supernatants were then aspirated slowly and transferred into new tubes kept on ice. The protein concentration in the samples was determined using BCA kit (Thermo Fisher Scientific) as per manufacturer's instructions.
(§2) For the p62 oligomerization and LC3 lipidation assays, cell lysates were prepared using RIPA buffer supplemented with 2% SDS and benzonase (Sigma). The lysates were then combined with 4× Laemmli protein sample buffer (Bio-Rad), heated at 70° C. for 10 min and subjected to a brief centrifugation of 10-15 seconds.
(§3) For p62 oligomerization and LC3 lipidation assays, lysates containing 30 μg of protein and for BRD4 and FKBP12(F36V) degradation assays, lysates containing 20 μg of protein, were loaded slowly into the wells of 4-20% gradient Tris-glycine gels (Bio-Rad). The gels were run at 100V until completion and transferred onto PVDF membranes. Membranes were blocked using 5% milk in TBS-Tween (0.1%) buffer at room temperature for 1 hour. The membranes were incubated with primary antibody in 5% milk-TBST with shaking, overnight at 4° C. The primary antibodies used were: p62 (Novus Biologicals 2C11, H00008878-MO1), LC3A/B (Cell Signalling Technology D3U4C, 12741S), FKBP12 (Abcam ab24373), BRD4 (Cell Signalling Technology E2A7X, 13440S), GAPDH (Cell Signalling Technology D4C6R, 97166S), and β-Actin (Proteintech 66009-1-Ig). Following primary antibody incubation, membranes were washed thrice with TBST 10 min before and after incubation with secondary-HRP conjugated antibody in 5% milk-TBST for 1 hour at room temperature. The secondary antibodies used were: Anti-Mouse IgG HRP Conjugate (Promega W4021B) and Anti-Rabbit IgG HRP Conjugate (Promega W4011). For the p62 oligomerization assay, the total protein levels were assessed using Ponceau staining (Thermo Fisher Scientific) of PVDF membrane as per recommendation by manufacturer's guidelines.
(§4) Imaging was acquired using SuperSignal™ West Pico PLUS Chemiluminescent Substrate (Thermo Fisher Scientific) with iBright Invitrogen FL100 imaging system. Band signal intensity, reflective of protein concentrations, were quantified using Invitrogen™ iBright™ Analysis and Image J software.
HeLa cells were treated with compounds for 24 hours to evaluate the effect of these compounds on p62 oligomerisation activity. The resulting changes in levels of p62 oligomers were assessed by Western blotting, as described in experimental procedures. The fold change of p62 oligomer levels induced by compound treatment relative to vehicle control (DMSO) was determined and summarized in Table 8. Specifically, FIGS. 2A-C show Western blot images and their corresponding quantification showing the levels of high molecular weight (100-200 kDa) p62 oligomers by 24 hours compound treatments at listed concentrations, relative to vehicle control (DMSO) in HeLa cells. Protein loading consistencies was assessed by Ponceau staining (not shown).

LC3 protein = assay: LC3 lipidation (LC3-II/LC3-I) assay by Western blot in HeLa cells; type: cell-based; conditions: 24 hours treatment, relative to vehicle control (DMSO)
Method: as §1, §2, §3, §4
HeLa cells were treated with compounds for 24 hours to evaluate the effect of these compounds on LC3-II/LC3-I levels, a measure of autophagy activation. The changes in levels of LC3-I, LC3-II and […] (loading control) were assessed by Western blotting, as described in experimental procedures. The fold increase of LC3-II/LC3-I levels induced by compound treatment relative to vehicle control (DMSO) was determined and summarized in Table 9. Specifically, FIGS. 3A-C show Western blot images and their corresponding quantification showing the lipidation levels of LC3 protein (LC3-II/LC3-I) by 24 hours compound treatments at listed concentrations, relative to vehicle control (DMSO) in HeLa cells.

Recombinant p62 protein = Recombinant p62 protein (Homo sapiens, UniProt Q13501); assay: Surface plasmon resonance (SPR) compound binding to p62; conditions: 15° C
Method: Recombinant p62 protein was buffer exchanged into Biacore SPR running buffer (Cytiva 100671) using the Slide-A-Lyzer Mini Dialysis system 7K MWCO (Thermo Fisher Scientific, Cat no. 69560). The final protein concentration was determined using the Nanodrop One spectrophotometer (Thermo Fisher Scientific, cat no. ND-ONE-W), with calibration for the dialysis buffer.
The prepared protein was diluted in sodium acetate buffer (NaAc, pH 5.5, Cytiva) to concentrations ranging from approximately 0.25-40 μg/mL. Post-immobilization, the protein required approximately 16 hours of equilibration in running buffer supplemented with 1% DMSO at 15° C. to ensure adequate surface equilibration and protein reorganization.
All SPR experiments were conducted at a constant temperature of 15° C. The SPR chip surface was activated using EDC/NHS for a contact time of 6-10 min at a flow rate of 10 μL/min. This was followed by protein immobilization for 2100 seconds and ethanolamine capping for 420 seconds, both at the same flow rate. Immediately after immobilization, the NH2-REEE peptide was analyzed in Single Cycle Kinetics mode (SCK) to verify surface activity, ensuring it binds the sample with the published affinity (˜20 μM by SPR).
For general compound binding studies, experiments were performed at 15° C. using a running buffer composed of 10 mM HEPES, 150 mM NaCl, 1 mM DTT, 0.05% Tween 20, and 1% DMSO at pH 7.4. The test compound was initially prepared at a 20 mM concentration in DMSO and subsequently titrated in 2-fold dilutions. For each assay, 2 μL of the compound was mixed with 198 μL of the running buffer, and the mixture was thoroughly pipetted approximately 15 times for homogenization.
A series of blank injections (0 μM concentration) were included for double referencing, with at least 8 or 16 per plate depending on the format. Typical injection parameters were 120 seconds for association and 180 seconds for dissociation at a flow rate of […]. A four-point solvent correction was prepared with DMSO concentrations ranging from 2% to 0.5% in the buffer. Post each compound injection, the system's needles were washed with 50% DMSO.
Analysis of the SPR data was conducted using the Cytiva Evaluation software. The binding levels at the late time-point of each interaction were corrected for reference, then normalized to percentage bound values to account for variations in immobilization levels, protein molecular weight, and compound molecular weight.
Compound binding studies were carried out according to experimental procedures above and SPR % occupancy was determined and summarized in Table 7.

p62 puncta = p62 puncta immunocytochemistry imaging in HeLa cells; type: cell-based; conditions: 24 hours treatment, relative to vehicle control (DMSO)
Method: HeLa cells were seeded in coated 96-well plates (10,000 cells) and allowed to adhere overnight. After 24 hours of treatment with either vehicle (DMSO) or test compounds, the media was discarded, and cells were rinsed with ice-cold 1×PBS before fixation by 4% formaldehyde or paraformaldehyde for 20 min. Cells were then washed with 1×PBS and permeabilized with 0.1% Triton X-100 in PBS for 20 min and blocked with Blocking Buffer in PBS for 1 hour. The cells were incubated thereafter for 1 hour with anti-p62 primary antibody in Blocking Buffer, followed by incubation with secondary antibody for 1 hour. DAPI dye was used to visualize nuclei of fixed cells. The blocking buffer used were 5% Fetal Bovine Serum (FBS, ThermoFIsher Scientific, 10270106) and Li-cor Intercept (PBS) Blocking Buffer (Li-cor, 927-70001). The primary antibody used was mouse anti-p62 primary antibody (Novus Biologicals, H00008878-M01). The secondary antibodies used were goat anti-mouse Alexa Fluor Plus 488 secondary antibody (Invitrogen, GOXMS) and goat anti-mouse Alexa Fluor 488 secondary antibody (Invitrogen, A-11029). The DAPI dyes used were DAPI dye (Invitrogen, 62248) and DAPI dye (Invitrogen, D1306).
For the EVOS M7000 System, cells were imaged on the EVOS M7000 microscope using a 20× air objective (Nikon, N.A 0.45). DAPI and p62 channels were illuminated with LED light cubes using integrated hard-coated filter sets for DAPI (357/447 nm) and GFP (470/525 nm) respectively. Images were analysed for p62 puncta count on the Celeste 6.0 software.
For the Operetta CLS System, cells were imaged on the Operetta CLS using a 63× water objective on the DAPI and Alexa 488 channels. Images were analysed for p62 puncta count on the Harmony 5.1 software.
HeLa cells were treated with compounds for 24 hours to evaluate the effect of these compounds on p62 puncta activity. The resulting changes in levels of p62 puncta were assessed by imaging, either on the EVOS M7000 or Operetta CLS systems as described in experimental procedures. The fold change of p62 puncta levels induced by compound treatment relative to vehicle control (DMSO) was determined and summarized in Table 10.

Sequence of Recombinant p62 protein (Q13501 whole entry, species assumed): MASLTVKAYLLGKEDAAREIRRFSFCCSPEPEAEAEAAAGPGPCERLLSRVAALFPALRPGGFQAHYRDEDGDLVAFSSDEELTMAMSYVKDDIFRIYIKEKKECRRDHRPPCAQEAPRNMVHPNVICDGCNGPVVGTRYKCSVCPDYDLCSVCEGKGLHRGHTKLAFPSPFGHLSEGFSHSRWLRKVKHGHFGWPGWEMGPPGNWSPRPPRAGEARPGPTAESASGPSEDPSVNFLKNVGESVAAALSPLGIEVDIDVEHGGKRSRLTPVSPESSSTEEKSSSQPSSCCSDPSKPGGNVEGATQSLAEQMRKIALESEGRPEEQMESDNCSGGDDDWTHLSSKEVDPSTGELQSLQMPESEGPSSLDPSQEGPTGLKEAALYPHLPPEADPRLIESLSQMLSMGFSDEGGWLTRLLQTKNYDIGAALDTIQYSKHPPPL
T1 sequence (Q13501 whole entry): as the sequence (Q13501 whole entry, species assumed) above

## Cc1cn(Cc2ccc(F)cc2)c2cccc(CNCCO)c12 [Compound 48]
p62 oligomers
  p62 oligomerization (fold change of p62 oligomer levels): ++ (>2-fold change relative to DMSO control)
LC3 protein
  LC3 lipidation (fold increase of LC3-II/LC3-I levels): ++ (>2-fold change in LC3-II/LC3-I relative to DMSO control)
Recombinant p62 protein
  receptor occupancy at 100 µM: 30 to 70%

## OCCNCc1cccc2c1ccn2CC1CCCCN1 (centres unmarked) [Compound 54]
Recombinant p62 protein
  receptor occupancy at 100 µM: < 30%
p62 puncta
  p62 puncta (fold change of p62 puncta levels): ++ (>2-fold change in p62 puncta levels relative to DMSO control)

## CC(C)(C)OC(=O)N1Cc2ccc(Cn3ccc4c(CNCCO)cccc43)cc2C1 [Compound 27]
p62 oligomers
  p62 oligomerization (fold change of p62 oligomer levels): ++ (>2-fold change relative to DMSO control)
LC3 protein
  LC3 lipidation (fold increase of LC3-II/LC3-I levels): + (<2-fold change in LC3-II/LC3-I relative to DMSO control)
Recombinant p62 protein
  receptor occupancy at 100 µM: > 70%

## OC1CC(NCc2cccc3c2ccn3Cc2ccccc2)C1 (centres unmarked) [Compound 7]
Recombinant p62 protein
  receptor occupancy at 100 µM: < 30%
p62 puncta
  p62 puncta (fold change of p62 puncta levels): + (<2-fold change in p62 puncta levels relative to DMSO control)

## CC(O)CNCc1cccc2c1ccn2Cc1ccccc1 (centres unmarked) [Compound 3]
Recombinant p62 protein
  receptor occupancy at 100 µM: 30 to 70%
p62 puncta
  p62 puncta (fold change of p62 puncta levels): + (<2-fold change in p62 puncta levels relative to DMSO control)

## CC(C)NCCN1Cc2cccc(CNCCO)c2C1 [Compound 43]
Recombinant p62 protein
  receptor occupancy at 100 µM: < 30%

## OCCNCc1cccc2c1ccn2Cc1ccncc1 [Compound 14]
Recombinant p62 protein
  receptor occupancy at 100 µM: < 30%

## OCCNCc1ccc2ccn(Cc3ccccc3)c2c1 [Compound 2]
Recombinant p62 protein
  receptor occupancy at 100 µM: < 30%

## OCCNCc1cccc2c1ccn2CCc1cccnc1 [Compound 29]
Recombinant p62 protein
  receptor occupancy at 100 µM: < 30%

## CC(C)(C)OC(=O)NCCOCCOCCOCCNCc1cccc2c1ccn2Cc1ccc(F)cc1 [Compound 84, tert-butyl (1-(1-(4-fluorobenzyl)-1H-indol-4-yl)-5,8,11-trioxa-2-azatridecan-13-yl)carbamate]
Recombinant p62 protein
  receptor occupancy at 100 µM: < 30%

## O=C(CCO)NCc1cccc2c1ccn2Cc1ccccc1 [Compound 52]
Recombinant p62 protein
  receptor occupancy at 100 µM: < 30%

## OCCNCc1cccc2c1ccn2Cc1ccccc1Cl [Compound 12]
Recombinant p62 protein
  receptor occupancy at 100 µM: 30 to 70%

## OCCNCc1ccc2c(ccn2Cc2ccccc2)c1 [Compound 38]
Recombinant p62 protein
  receptor occupancy at 100 µM: 30 to 70%

## O=C(NCCO)NCc1cccc2c1ccn2Cc1ccccc1 [Compound 53, 1-((1-benzyl-1H-indol-4-yl)methyl)-3-(2-hydroxyethyl)urea]
Recombinant p62 protein
  receptor occupancy at 100 µM: < 30%

## O=S(=O)(c1ccccc1)n1ccc2c(CNCCO)cccc21 [Compound 17, 2-(((1-(phenylsulfonyl)-1H-indol-4-yl)methyl)amino)ethan-1-ol]
Recombinant p62 protein
  receptor occupancy at 100 µM: 30 to 70%

## O=C(CO)NCc1cccc2c1ccn2Cc1ccc(F)cc1 [Compound 46]
Recombinant p62 protein
  receptor occupancy at 100 µM: 30 to 70%

## O=C(NCCO)c1cccc2c1ccn2Cc1ccccc1 [Compound 4, 1-benzyl-N-(2-hydroxyethyl)-1H-indole-4-carboxamide]
Recombinant p62 protein
  receptor occupancy at 100 µM: < 30%

## OCCNCc1cccc2c1CCN2Cc1ccccc1 [Compound 40, 2-(((1-benzylindolin-4-yl)methyl)amino)ethan-1-ol]
Recombinant p62 protein
  receptor occupancy at 100 µM: < 30%

## CC(=O)N1CCC(COCCNCc2cccc3c2ccn3Cc2ccccc2)CC1 [Compound 85, 1-(4-((2-(((1-benzyl-1H-indol-4-yl)methyl)amino)ethoxy)methyl)piperidin-1-yl)ethan-1-one]
Recombinant p62 protein
  receptor occupancy at 100 µM: < 30%

## CC(C)OCCNCc1cccc2c1ccn2Cc1ccccc1 [Compound 47]
Recombinant p62 protein
  receptor occupancy at 100 µM: < 30%

## OCCNCc1c(Cl)ccc2c1ccn2Cc1ccccc1 [Compound 36]
Recombinant p62 protein
  receptor occupancy at 100 µM: 30 to 70%

## OCCNCc1cccc2c1ccn2CC1CCNCC1 [Compound 25, 2-(((1-(piperidin-4-ylmethyl)-1H-indol-4-yl)methyl)amino)ethan-1-ol]
Recombinant p62 protein
  receptor occupancy at 100 µM: < 30%

## CNCCOCc1cccc2c1ccn2Cc1ccccc1 [Compound 5, 2-((1-benzyl-1H-indol-4-yl)methoxy)-N-methylethan-1-amine]
Recombinant p62 protein
  receptor occupancy at 100 µM: 30 to 70%
p62 puncta
  p62 puncta (fold change of p62 puncta levels): + (<2-fold change in p62 puncta levels relative to DMSO control)

## OCCNCc1cncc2c1ccn2Cc1ccccc1 [Compound 51]
Recombinant p62 protein
  receptor occupancy at 100 µM: < 30%
